Measured values taken from publication PMC6669322, “Small Molecule Binding to Alzheimer Risk Factor CD33 Promotes Aβ Phagocytosis” (iScience, 2019).

Molecular target: CD33 R119A (Homo sapiens, UniProt P20138, R119A)
Test: surface plasmon resonance (SPR), CD33 R119A mutant
Type: binding
Set-up: DNA encoding D18 to H143 of human CD33; octa-histidine tag with TEV protease cleavage site (N); made in house; host or cells: E. coli BL21* (the general protein production text; the R119A protein is not described on its own)
Settings: P22 as analyte, captured CD33 R119A
Excerpt: We next performed surface plasmon resonance (SPR) measurements on P22 binding to CD33 wild-type, and selected mutants, to obtain detailed kinetic data (see Transparent Methods). The CD33 V-set domain has a free cysteine residue (C36), which caused anomalous results in some of our SPR experiments due to disulfide-linked oligomers forming in solution.
P22 (β-D-Glucopyranoside, 2-aminoethyl O-[N-[2-(4-cyclohexyl-1H-1,2,3-triazol-1-yl)acetyl]-9-deoxy-9-[(4-hydroxy-3,5-dimethylbenzoyl)amino]-α-neuraminosyl] (2→6)-O-β-D-galactopyranosyl-(1→4)-; CAS registry number [1809735-27-0]) was synthesized as described by Paulson and co-workers (Rillahan et al., 2014). Biotinylated P22 (Figure S1C) was prepared by treatment of a solution of P22 (12 mg, 0.012 mmol) in dimethylformamide (1 mL), with DIPEA (8.6 µL, […]) followed by addition of (+)- biotin N-hydroxysuccinimide ester (4.2 mg, 0.012 mmol), the resulting reaction mixture was then stirred for 2 h at RT. After which the reaction mixture was concentrated in vacuo and purified by reverse phase, performed via preparative HPLC (Stationary phase: RP XBridge Prep C18 OBD- 5µm,19x150mm, Mobile phase: 0.25% NH4HCO3 solution in water, CH3CN) to afford Biotin-P22 (9 mg, yield 60.9%). […]

Chain of CD33 R119A (P20138 18-143 R119A): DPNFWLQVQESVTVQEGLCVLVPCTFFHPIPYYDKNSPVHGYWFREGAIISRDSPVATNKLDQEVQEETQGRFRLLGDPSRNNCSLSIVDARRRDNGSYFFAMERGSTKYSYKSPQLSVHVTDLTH

SMILES: Cc1cc(C(=O)NC[C@@H](O)[C@@H](O)[C@@H]2O[C@@](OC[C@H]3O[C@@H](O[C@H]4[C@H](O)[C@@H](O)[C@H](OCCN)O[C@@H]4CO)[C@H](O)[C@@H](O)[C@H]3O)(C(=O)O)C[C@H](O)[C@H]2NC(=O)Cn2cc(C3CCCCC3)nn2)cc(C)c1O [P22, β-D-Glucopyranoside, 2-aminoethyl O-[N-[2-(4-cyclohexyl-1H-1,2,3-triazol-1-yl)acetyl]-9-deoxy-9-[(4-hydroxy-3,5-dimethylbenzoyl)amino]-α-neuraminosyl] (2→6)-O-β-D-galactopyranosyl-(1→4)-]
- binding observed by SPR: no binding
